Test results as given in PMC8347432 (2021).

Tests used:
[1] = test system: octamer duplex d(GCGATCGC)2 (3) (DNA, duplex) GCGATCGC; test: 1H NMR titration (chemical shift); details: 25 mM NaCl, 25 mM K3PO4, D2O buffer, pH 6.0, 10 °C, 0.29 mM compound
[2] = test system: octamer duplex d(GCGATCGC)2 (3) (DNA, duplex) GCGATCGC; test: DOSY NMR (PGSE diffusion coefficients); details: 25 mM NaCl, 25 mM K3PO4, D2O buffer, pH 6.4, 10 °C, 0.29 mM compound

Compound	Ka [1]	Ka ([2]; 0.87 mM octamer)	Ka ([1]; 5.89 ± 1.07 omitting H12 and H14)	Ka ([2]; 0.92 mM octamer)
CCc1c2c(nc3ccc(O)c(CN4CCC4)c13)-c1cc3c(c(=O)n1[C@@H]2CO)COC(=O)[C@]3(O)CC	3.76 ± 1.19 mM⁻¹	2.0 ± 0.3 mM⁻¹		
CCc1c2c(nc3ccc(O)c(CN4CCC4)c13)-c1cc3c(c(=O)n1[C@H]2CO)COC(=O)[C@]3(O)CC			5.00 ± 2.02 mM⁻¹	5.9 ± 0.3 mM⁻¹
